Assay results taken from ChEMBL document CHEMBL2413072, “Synthesis and in vitro anticancer studies of novel C-2 arylidene congeners of lantadenes” (2013).
The source made the active and inactive calls. The rule behind the calls is not given here.

Columns and labels:
Type in all cases: functional
A549 = assay: Growth inhibition of human A549/ATCC cells assessed as cell growth at 10 uM by sulforhodamine B assay; conditions: read-out: Activity
SN12C = assay: Growth inhibition of human SN12C cells assessed as growth inhibition at 10 uM by sulforhodamine B assay; conditions: read-out: GI
UO-31 = assay: Growth inhibition of human UO31 cells assessed as growth inhibition at 10 uM by sulforhodamine B assay
SK-MEL-5 = assay: Growth inhibition of human SK-MEL-5 cells assessed as growth inhibition at 10 uM by sulforhodamine B assay; conditions: read-out: GI
OVCAR-4 [1] = assay: Growth inhibition of human OVCAR4 cells assessed as cell growth at 10 uM by sulforhodamine B assay; conditions: read-out: Activity
SF-268 [2] = assay: Growth inhibition of human SF268 cells assessed as cell growth at 10 uM by sulforhodamine B assay; conditions: read-out: Activity
T47D [3] = assay: Growth inhibition of human T47D cells assessed as cell growth at 10 uM by sulforhodamine B assay; conditions: read-out: Activity
NCI-H23 = assay: Growth inhibition of human NCI-H23 cells assessed as growth inhibition at 10 uM by sulforhodamine B assay; conditions: read-out: GI
SK-OV-3 = assay: Growth inhibition of human SKOV3 cells assessed as growth inhibition at 10 uM by sulforhodamine B assay; conditions: read-out: GI
UACC-62 [4] = assay: Growth inhibition of human UACC62 cells assessed as cell growth at 10 uM by sulforhodamine B assay; conditions: read-out: Activity
DU-145 [5] = assay: Growth inhibition of human DU145 cells assessed as cell growth at 10 uM by sulforhodamine B assay; conditions: read-out: Activity
SW-620 [6] = assay: Growth inhibition of human SW620 cells assessed as growth inhibition at 10 uM by sulforhodamine B assay; conditions: read-out: GI
[7] = Growth inhibition of human NCI-ADR-RES cells assessed as cell growth at 10 uM by sulforhodamine B assay; conditions: read-out: Activity
[8] = Growth inhibition of human Hs 578T cells assessed as growth inhibition at 10 uM by sulforhodamine B assay; conditions: read-out: GI
NCI-H322M = assay: Growth inhibition of human NCI-H322M cells assessed as cell growth at 10 uM by sulforhodamine B assay; conditions: read-out: Activity
UACC-257 [9] = assay: Growth inhibition of human UACC257 cells assessed as growth inhibition at 10 uM by sulforhodamine B assay; conditions: read-out: GI
NCI-H226 = assay: Growth inhibition of human NCI-H226 cells assessed as growth inhibition at 10 uM by sulforhodamine B assay; conditions: read-out: GI
SF-539 [10] = assay: Growth inhibition of human SF539 cells assessed as cell growth at 10 uM by sulforhodamine B assay; conditions: read-out: Activity
NCI-H522 = assay: Growth inhibition of human NCI-H522 cells assessed as growth inhibition at 10 uM by sulforhodamine B assay; conditions: read-out: GI
OVCAR-8 = assay: Growth inhibition of human OVCAR8 cells assessed as cell growth at 10 uM by sulforhodamine B assay; conditions: read-out: Activity
TK-10 = assay: Growth inhibition of human TK10 cells assessed as growth inhibition at 10 uM by sulforhodamine B assay; conditions: read-out: GI
PC-3 = assay: Growth inhibition of human PC3 cells assessed as growth inhibition at 10 uM by sulforhodamine B assay; conditions: read-out: GI
DU-145 [11] = assay: Growth inhibition of human DU145 cells assessed as growth inhibition at 10 uM by sulforhodamine B assay; conditions: read-out: GI
UACC-257 [12] = assay: Growth inhibition of human UACC257 cells assessed as cell growth at 10 uM by sulforhodamine B assay; conditions: read-out: Activity
UACC-62 [13] = assay: Growth inhibition of human UACC62 cells assessed as growth inhibition at 10 uM by sulforhodamine B assay
SNB-75 [14] = assay: Growth inhibition of human SNB75 cells assessed as growth inhibition at 10 uM by sulforhodamine B assay; conditions: read-out: GI
[15] = Growth inhibition of human HCC2998 cells assessed as cell growth at 10 uM by sulforhodamine B assay; conditions: HCC 2998, read-out: Activity
OVCAR-4 [16] = assay: Growth inhibition of human OVCAR4 cells assessed as growth inhibition at 10 uM by sulforhodamine B assay; conditions: read-out: GI
786-0 = assay: Growth inhibition of human 786-0 cells assessed as cell growth at 10 uM by sulforhodamine B assay; conditions: read-out: Activity
MDA-MB-435 = assay: Growth inhibition of human MDA-MB-435 cells assessed as growth inhibition at 10 uM by sulforhodamine B assay; conditions: read-out: GI
CAKI-1 = assay: Growth inhibition of human CAKI-1 cells assessed as cell growth at 10 uM by sulforhodamine B assay; conditions: read-out: Activity
HL-60(TB) = assay: Growth inhibition of human HL-60(TB) cells assessed as growth inhibition at 10 uM by sulforhodamine B assay
HT-29 = assay: Growth inhibition of human HT-29 cells assessed as growth inhibition at 10 uM by sulforhodamine B assay; conditions: read-out: GI
HCT-116 = assay: Growth inhibition of human HCT116 cells assessed as growth inhibition at 10 uM by sulforhodamine B assay; conditions: read-out: GI
HCT-15 = assay: Growth inhibition of human HCT15 cells assessed as cell growth at 10 uM by sulforhodamine B assay; conditions: read-out: Activity
Malme-3M = assay: Growth inhibition of human MALME-3M cells assessed as growth inhibition at 10 uM by sulforhodamine B assay; conditions: read-out: GI
SNB-75 [17] = assay: Growth inhibition of human SNB75 cells assessed as cell growth at 10 uM by sulforhodamine B assay; conditions: read-out: Activity
RXF 393 = assay: Growth inhibition of human RXF393 cells assessed as cell growth at 10 uM by sulforhodamine B assay; conditions: read-out: Activity
SF-268 [18] = assay: Growth inhibition of human SF268 cells assessed as growth inhibition at 10 uM by sulforhodamine B assay; conditions: read-out: GI
MDA-MB-468 = assay: Growth inhibition of human MDA-MB-468 cells assessed as growth inhibition at 10 uM by sulforhodamine B assay; conditions: read-out: GI
K562 = assay: Growth inhibition of human K562 cells assessed as growth inhibition at 10 uM by sulforhodamine B assay; conditions: read-out: GI
NCI-H460 = assay: Growth inhibition of human NCI-H460 cells assessed as growth inhibition at 10 uM by sulforhodamine B assay; conditions: read-out: GI
SF-539 [19] = assay: Growth inhibition of human SF539 cells assessed as growth inhibition at 10 uM by sulforhodamine B assay; conditions: read-out: GI
T47D [20] = assay: Growth inhibition of human T47D cells assessed as growth inhibition at 10 uM by sulforhodamine B assay; conditions: read-out: GI
SW-620 [21] = assay: Growth inhibition of human SW620 cells assessed as cell growth at 10 uM by sulforhodamine B assay; conditions: read-out: Activity
SR = assay: Growth inhibition of human SR cells assessed as cell growth at 10 uM by sulforhodamine B assay; conditions: read-out: Activity
[22] = Growth inhibition of human Hs 578T cells assessed as cell growth at 10 uM by sulforhodamine B assay; conditions: read-out: Activity
U-251 = assay: Growth inhibition of human U251 cells assessed as growth inhibition at 10 uM by sulforhodamine B assay; conditions: read-out: GI
SF-295 = assay: Growth inhibition of human SF295 cells assessed as cell growth at 10 uM by sulforhodamine B assay; conditions: read-out: Activity

CC(C)=CC(=O)O[C@@H]1CC(C)(C)C[C@H]2C3=CC[C@@H]4[C@@]5(C)CCC(=O)C(C)(C)[C@@H]5CC[C@@]4(C)[C@]3(C)CC[C@@]12C(=O)O
growth at 10 µM (A549): 22.2%
inhibition of growth at 10 µM (SN12C): 57.4%
inhibition of growth at 10 µM (UO-31; read-out: GI): 58%
inhibition of growth at 10 µM (SK-MEL-5): 52.1%
growth at 10 µM (OVCAR-4 [1]): 71.3%
growth at 10 µM (SF-268 [2]): 73%
growth at 10 µM (T47D [3]): 61.6%
inhibition of growth at 10 µM (NCI-H23): 46.6%
inhibition of growth at 10 µM (SK-OV-3): < 10%
growth at 10 µM (UACC-62 [4]): 57.8%
growth at 10 µM (DU-145 [5]): 74.5%
inhibition of growth at 10 µM (SW-620 [6]): 37.3%
growth at 10 µM [7]: 60%
inhibition of growth at 10 µM [8]: 20.4%
growth at 10 µM (NCI-H322M): 54%
inhibition of growth at 10 µM (UACC-257 [9]): 26.1%
inhibition of growth at 10 µM (NCI-H226): 21.8%
growth at 10 µM (SF-539 [10]): 65%
inhibition of growth at 10 µM (NCI-H522): 42.7%
growth at 10 µM (OVCAR-8): 55.1%
inhibition of growth at 10 µM (TK-10): 21.9%
inhibition of growth at 10 µM (PC-3): 63.1%
inhibition of growth at 10 µM (DU-145 [11]): 25.6%
growth at 10 µM (UACC-257 [12]): 73.9%
inhibition of growth at 10 µM (UACC-62 [13]; read-out: GI): 42.2%
inhibition of growth at 10 µM (SNB-75 [14]): 30%
growth at 10 µM [15]: 52.8%
inhibition of growth at 10 µM (OVCAR-4 [16]): 28.7%
growth at 10 µM (786-0): 44.1%
inhibition of growth at 10 µM (MDA-MB-435): 10.4%
growth at 10 µM (CAKI-1): 46.8%
inhibition of growth at 10 µM (HL-60(TB); read-out: GI): 89.8%
inhibition of growth at 10 µM (HT-29): 42.7%
inhibition of growth at 10 µM (HCT-116): 73.4%
growth at 10 µM (HCT-15): 18.6%
inhibition of growth at 10 µM (Malme-3M): 14.6%
growth at 10 µM (SNB-75 [17]): 70%
growth at 10 µM (RXF 393): 84.6%
inhibition of growth at 10 µM (SF-268 [18]): 27%
inhibition of growth at 10 µM (MDA-MB-468): 35.8%
inhibition of growth at 10 µM (K562): 55%
inhibition of growth at 10 µM (NCI-H460): 52.9%
inhibition of growth at 10 µM (SF-539 [19]): 35%
inhibition of growth at 10 µM (T47D [20]): 38.4%
growth at 10 µM (SW-620 [21]): 62.7%
growth at 10 µM (SR): 52.1%
growth at 10 µM [22]: 79.6%
inhibition of growth at 10 µM (U-251): 61.8%

C/C=C(/C)C(=O)O[C@@H]1CC(C)(C)C[C@H]2C3=CC[C@@H]4[C@@]5(C)CC[C@H](O)C(C)(C)[C@@H]5CC[C@@]4(C)[C@]3(C)CC[C@@]12C(=O)O [Reduced Lantadene A]
growth at 10 µM (A549): 27.4%
inhibition of growth at 10 µM (SN12C): 94.2%
growth inhibition (GI) (UO-31): Active
inhibition of growth at 10 µM (SK-MEL-5): 46.8%
growth at 10 µM (OVCAR-4 [1]): 63.2%
growth at 10 µM (SF-268 [2]): 25.9%
growth at 10 µM (T47D [3]): 75.7%
inhibition of growth at 10 µM (NCI-H23): 35.3%
inhibition of growth at 10 µM (SK-OV-3): 58.2%
growth at 10 µM (UACC-62 [4]): -28.1%
growth at 10 µM (DU-145 [5]): 74.9%
inhibition of growth at 10 µM (SW-620 [6]): 60.9%
growth at 10 µM [7]: 69.8%
growth at 10 µM (NCI-H322M): -8.43%
inhibition of growth at 10 µM (UACC-257 [9]): 39.4%
inhibition of growth at 10 µM (NCI-H226): 57.9%
growth at 10 µM (SF-539 [10]): 43%
inhibition of growth at 10 µM (NCI-H522): 50.3%
growth at 10 µM (OVCAR-8): 57.7%
inhibition of growth at 10 µM (TK-10): 33.2%
inhibition of growth at 10 µM (PC-3): 66.7%
inhibition of growth at 10 µM (DU-145 [11]): 25.1%
growth at 10 µM (UACC-257 [12]): 60.6%
growth inhibition (GI) (UACC-62 [13]): Active
inhibition of growth at 10 µM (SNB-75 [14]): 88%
growth at 10 µM [15]: 26.4%
inhibition of growth at 10 µM (OVCAR-4 [16]): 36.8%
growth at 10 µM (SF-295): -14.4%
growth at 10 µM (786-0): -42.9%
inhibition of growth at 10 µM (MDA-MB-435): 35.1%
growth at 10 µM (CAKI-1): 29.5%
growth inhibition (GI) (HL-60(TB)): Active
inhibition of growth at 10 µM (HT-29): 44.2%
inhibition of growth at 10 µM (HCT-116): 80%
growth at 10 µM (HCT-15): 21.2%
inhibition of growth at 10 µM (Malme-3M): 64.8%
growth at 10 µM (SNB-75 [17]): 11.9%
growth at 10 µM (RXF 393): 22.8%
inhibition of growth at 10 µM (SF-268 [18]): 74.1%
inhibition of growth at 10 µM (MDA-MB-468): 33.9%
inhibition of growth at 10 µM (K562): 64.1%
inhibition of growth at 10 µM (NCI-H460): 64.9%
inhibition of growth at 10 µM (SF-539 [19]): 57%
inhibition of growth at 10 µM (T47D [20]): 24.3%
growth at 10 µM (SW-620 [21]): 39.1%
growth at 10 µM (SR): 61.9%
growth at 10 µM [22]: -17.2%
inhibition of growth at 10 µM (U-251): 61.8%
